Laboratory results published in ChEMBL document CHEMBL1152195, “The discovery of AZD5597, a potent imidazole pyrimidine amide CDK inhibitor suitable for intravenous dosing” (Bioorg Med Chem Lett, 2008).
Converted amounts (≈) assume the structure as drawn. Each block holds one molecule with its values, some of them ahead of it.

Assays:
[1] = Dissociation constant, pKa of the compound; format: physicochemical
[2] = target: Cyclin-dependent kinase 9 (Homo sapiens) (UniProt P50750); assay: Inhibition of CDK9
Sequence of Cyclin-dependent kinase 9 (Homo sapiens) (P50750 whole entry): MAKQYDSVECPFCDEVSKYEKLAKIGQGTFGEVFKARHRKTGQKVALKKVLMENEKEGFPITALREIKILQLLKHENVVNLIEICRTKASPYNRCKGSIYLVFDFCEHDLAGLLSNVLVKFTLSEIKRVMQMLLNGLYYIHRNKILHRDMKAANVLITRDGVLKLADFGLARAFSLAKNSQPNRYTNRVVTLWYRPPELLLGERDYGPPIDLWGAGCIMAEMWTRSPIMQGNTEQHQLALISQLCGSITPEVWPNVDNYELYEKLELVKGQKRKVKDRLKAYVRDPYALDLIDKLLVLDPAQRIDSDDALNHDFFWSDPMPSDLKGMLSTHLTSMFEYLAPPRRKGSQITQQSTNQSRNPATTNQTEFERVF

[3] = Protein binding in rat plasma assessed as fraction unbound; format: ADME, cell-free; conditions: read-out: PPB
[4] = Volume of distribution at steady state in rat at 2.5 umol/kg, iv; format: ADME, organism-based; conditions: in vivo, read-out: Vdss
[5] = target: Voltage-gated inwardly rectifying potassium channel KCNH2 (Homo sapiens, UniProt Q12809); assay: Inhibition of human ERG
Sequence of Voltage-gated inwardly rectifying potassium channel KCNH2 (Q12809 whole entry): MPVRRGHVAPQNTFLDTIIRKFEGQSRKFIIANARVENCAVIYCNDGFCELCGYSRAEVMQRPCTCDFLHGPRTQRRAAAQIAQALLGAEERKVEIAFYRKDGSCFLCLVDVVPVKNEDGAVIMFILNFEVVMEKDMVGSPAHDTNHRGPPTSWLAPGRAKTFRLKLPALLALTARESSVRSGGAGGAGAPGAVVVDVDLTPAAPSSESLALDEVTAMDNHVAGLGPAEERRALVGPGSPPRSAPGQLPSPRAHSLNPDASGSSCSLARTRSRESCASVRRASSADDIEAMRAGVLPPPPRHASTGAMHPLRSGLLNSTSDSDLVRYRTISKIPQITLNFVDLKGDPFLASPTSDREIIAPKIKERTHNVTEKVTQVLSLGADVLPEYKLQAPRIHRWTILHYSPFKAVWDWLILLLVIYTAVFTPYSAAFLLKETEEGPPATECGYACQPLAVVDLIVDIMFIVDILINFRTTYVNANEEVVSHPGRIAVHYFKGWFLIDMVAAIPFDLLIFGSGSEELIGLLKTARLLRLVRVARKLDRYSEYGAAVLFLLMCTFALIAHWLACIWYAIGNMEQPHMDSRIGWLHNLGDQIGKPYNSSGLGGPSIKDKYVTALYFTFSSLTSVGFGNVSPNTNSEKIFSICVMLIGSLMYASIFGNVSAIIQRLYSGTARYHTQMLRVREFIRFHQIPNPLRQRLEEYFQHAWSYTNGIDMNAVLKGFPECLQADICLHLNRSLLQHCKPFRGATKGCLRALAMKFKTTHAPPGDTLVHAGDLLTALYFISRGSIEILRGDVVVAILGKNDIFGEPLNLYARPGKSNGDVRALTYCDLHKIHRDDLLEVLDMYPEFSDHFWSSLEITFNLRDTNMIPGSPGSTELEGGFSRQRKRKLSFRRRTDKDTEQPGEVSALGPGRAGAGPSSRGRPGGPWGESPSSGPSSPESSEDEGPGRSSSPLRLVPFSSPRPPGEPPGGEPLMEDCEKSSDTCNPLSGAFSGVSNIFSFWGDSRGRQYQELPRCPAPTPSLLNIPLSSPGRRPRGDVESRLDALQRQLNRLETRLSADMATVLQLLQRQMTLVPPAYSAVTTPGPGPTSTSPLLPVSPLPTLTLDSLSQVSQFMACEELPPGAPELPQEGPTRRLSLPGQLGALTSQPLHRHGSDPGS

[6] = Clearance in rat at 2.5 umol/kg, iv; format: ADME, organism-based; conditions: in vivo
[7] = test system: LoVo; assay: Antiproliferative activity against human LoVo cells assessed as inhibition of BrdU incorporation after 48 hrs; format: functional, cell-based
[8] = target: Cyclin-dependent kinase 1 (Homo sapiens, UniProt P06493); assay: Inhibition of CDK1
Sequence of Cyclin-dependent kinase 1 (P06493 whole entry): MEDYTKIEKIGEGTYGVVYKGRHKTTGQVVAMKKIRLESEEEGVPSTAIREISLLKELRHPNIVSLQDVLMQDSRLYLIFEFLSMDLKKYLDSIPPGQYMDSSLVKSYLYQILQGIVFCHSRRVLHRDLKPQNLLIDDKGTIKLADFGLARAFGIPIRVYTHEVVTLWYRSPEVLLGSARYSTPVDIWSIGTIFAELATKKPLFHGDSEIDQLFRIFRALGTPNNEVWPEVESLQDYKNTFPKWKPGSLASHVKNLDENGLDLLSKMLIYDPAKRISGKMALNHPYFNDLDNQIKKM

[9] = AUC in rat at 2.5 umol/kg, iv; format: ADME, organism-based; conditions: plasma
[10] = Lipophilicity, log D of the compound; format: physicochemical; conditions: octanol/water
[11] = physchem; conditions: buffer, pH 7.4
Description: Equilibrium solubility at pH 7.4 after 24 hrs

[12] = target: Cyclin-dependent kinase 2 (Homo sapiens, UniProt P24941); assay: Inhibition of CDK2
[13] = Hydrolytic stability assessed as half life at pH 4 to 10; format: physicochemical; conditions: buffer
[14] = target: Cytochrome P450 2C19 (Homo sapiens, UniProt P33261); assay: Inhibition of CYP2C19; format: ADME
Sequence of Cytochrome P450 2C19 (P33261 whole entry): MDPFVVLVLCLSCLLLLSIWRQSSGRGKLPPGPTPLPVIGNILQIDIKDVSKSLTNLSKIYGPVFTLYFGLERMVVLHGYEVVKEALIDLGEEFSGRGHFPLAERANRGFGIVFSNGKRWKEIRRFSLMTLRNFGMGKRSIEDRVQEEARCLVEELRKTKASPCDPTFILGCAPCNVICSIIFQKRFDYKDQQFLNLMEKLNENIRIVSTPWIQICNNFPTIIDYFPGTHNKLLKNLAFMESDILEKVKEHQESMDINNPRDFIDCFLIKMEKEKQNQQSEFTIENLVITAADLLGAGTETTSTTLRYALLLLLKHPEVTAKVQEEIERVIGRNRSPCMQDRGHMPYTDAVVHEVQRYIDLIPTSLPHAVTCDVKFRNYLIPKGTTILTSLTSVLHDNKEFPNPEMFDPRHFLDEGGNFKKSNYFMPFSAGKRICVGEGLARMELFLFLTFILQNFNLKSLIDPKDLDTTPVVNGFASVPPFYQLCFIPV

[15] = target: Cytochrome P450 2D6 (Homo sapiens, UniProt P10635); assay: Inhibition of CYP2D6; format: ADME
Sequence of Cytochrome P450 2D6 (P10635 whole entry): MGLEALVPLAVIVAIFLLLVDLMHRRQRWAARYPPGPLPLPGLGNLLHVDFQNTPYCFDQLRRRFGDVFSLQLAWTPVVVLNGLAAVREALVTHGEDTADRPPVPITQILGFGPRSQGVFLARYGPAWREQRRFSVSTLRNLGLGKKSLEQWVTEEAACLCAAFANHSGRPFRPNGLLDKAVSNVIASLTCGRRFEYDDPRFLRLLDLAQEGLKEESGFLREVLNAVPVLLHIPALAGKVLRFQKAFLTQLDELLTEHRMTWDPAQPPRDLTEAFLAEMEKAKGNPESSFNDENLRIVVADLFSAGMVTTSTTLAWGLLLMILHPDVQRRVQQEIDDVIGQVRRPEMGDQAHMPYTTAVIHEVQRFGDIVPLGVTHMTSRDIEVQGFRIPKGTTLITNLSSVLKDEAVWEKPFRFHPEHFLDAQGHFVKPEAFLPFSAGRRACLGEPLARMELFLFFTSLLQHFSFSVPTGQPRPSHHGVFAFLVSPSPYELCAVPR

[16] = Half life in Han/Wistar rat at 2.5 umol/kg, iv; format: ADME, organism-based; conditions: in vivo
[17] = Stability in rat plasma; format: ADME, cell-free; conditions: read-out: Stability
[18] = target: Cytochrome P450 3A4 (Homo sapiens, UniProt P08684); assay: Inhibition of CYP3A4; format: ADME
Sequence of Cytochrome P450 3A4 (P08684 whole entry): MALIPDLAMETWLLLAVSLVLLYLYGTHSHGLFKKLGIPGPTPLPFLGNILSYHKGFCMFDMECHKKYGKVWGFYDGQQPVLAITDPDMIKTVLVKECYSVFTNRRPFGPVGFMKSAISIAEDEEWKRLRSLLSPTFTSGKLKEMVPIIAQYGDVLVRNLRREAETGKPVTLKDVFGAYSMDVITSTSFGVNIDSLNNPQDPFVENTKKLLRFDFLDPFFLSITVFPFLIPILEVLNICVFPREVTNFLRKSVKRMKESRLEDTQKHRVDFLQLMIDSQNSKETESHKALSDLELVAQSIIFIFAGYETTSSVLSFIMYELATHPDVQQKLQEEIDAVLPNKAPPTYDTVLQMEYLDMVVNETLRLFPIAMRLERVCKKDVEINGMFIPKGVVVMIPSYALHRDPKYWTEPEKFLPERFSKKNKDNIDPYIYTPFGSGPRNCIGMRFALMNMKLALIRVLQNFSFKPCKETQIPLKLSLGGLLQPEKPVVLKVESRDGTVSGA

[19] = Clearance in Han/Wistar rat at 2.5 umol/kg, iv; format: ADME, organism-based; conditions: in vivo
[20] = Stability in dog plasma; format: ADME, cell-free, Canis lupus familiaris; conditions: read-out: Stability
[21] = test system: Mus musculus; assay: AUC in nude mouse at 5 umol/kg, iv; format: ADME, organism-based, Plasma; conditions: in vivo
[22] = test system: Rattus norvegicus; assay: AUC in Han/Wistar rat at 2.5 umol/kg, iv; format: ADME, organism-based, Plasma; conditions: in vivo
[23] = Half life in Beagle dog at 0.2 umol/kg, iv; format: ADME, organism-based, Canis lupus familiaris; conditions: in vivo
[24] = Protein binding in nude mouse plasma assessed as fraction unbound; format: ADME, cell-free; conditions: read-out: PPB
[25] = test system: Plasma; assay: Protein binding in Beagle dog plasma assessed as fraction unbound; format: ADME, cell-free, Canis lupus familiaris
[26] = Volume of distribution at steady state in Han/Wistar rat at 2.5 umol/kg, iv; format: ADME, organism-based; conditions: in vivo, read-out: Vdss
[27] = test system: SW-620; assay: Antitumor activity against human SW620 cells xenografted nude mouse assessed as inhibition of tumor volume at 15 mg/kg, ip administered thrice a week for 3 weeks; format: functional; conditions: SW-620, ip, 504 h, route intraperitoneal
[28] = target: T1, Cytochrome P450 1A2 (Homo sapiens, UniProt P05177); assay: Inhibition of CYP1A2; format: ADME
T1 sequence (P05177 whole entry): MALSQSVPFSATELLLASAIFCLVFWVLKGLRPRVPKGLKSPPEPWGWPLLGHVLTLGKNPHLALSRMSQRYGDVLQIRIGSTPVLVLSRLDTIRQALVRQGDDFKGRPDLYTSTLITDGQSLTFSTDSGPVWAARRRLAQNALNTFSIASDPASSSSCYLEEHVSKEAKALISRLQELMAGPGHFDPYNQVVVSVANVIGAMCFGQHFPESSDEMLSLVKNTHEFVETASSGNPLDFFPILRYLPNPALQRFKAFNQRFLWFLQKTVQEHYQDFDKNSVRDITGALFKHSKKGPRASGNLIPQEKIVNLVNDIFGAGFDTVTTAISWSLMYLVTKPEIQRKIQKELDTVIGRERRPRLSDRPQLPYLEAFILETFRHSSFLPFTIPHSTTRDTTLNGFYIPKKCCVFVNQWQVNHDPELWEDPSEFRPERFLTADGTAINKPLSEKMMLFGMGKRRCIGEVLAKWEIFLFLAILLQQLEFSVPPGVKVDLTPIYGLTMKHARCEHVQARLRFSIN

[29] = Volume of distribution at steady state in Beagle dog at 0.2 umol/kg, iv; format: ADME, organism-based, Canis lupus familiaris; conditions: in vivo, read-out: Vdss
[30] = Photostability assessed as half life; format: physicochemical
[31] = Stability in human plasma; format: ADME, cell-free; conditions: read-out: Stability
[32] = species: Canis familiaris; assay: Clearance in Beagle dog assessed as liver blood flow; format: ADME, organism-based, Canis lupus familiaris; conditions: in vivo
[33] = target: Cytochrome P450 2C9 (Homo sapiens, UniProt P11712); assay: Inhibition of CYP2C9; format: ADME
Sequence of Cytochrome P450 2C9 (P11712 whole entry): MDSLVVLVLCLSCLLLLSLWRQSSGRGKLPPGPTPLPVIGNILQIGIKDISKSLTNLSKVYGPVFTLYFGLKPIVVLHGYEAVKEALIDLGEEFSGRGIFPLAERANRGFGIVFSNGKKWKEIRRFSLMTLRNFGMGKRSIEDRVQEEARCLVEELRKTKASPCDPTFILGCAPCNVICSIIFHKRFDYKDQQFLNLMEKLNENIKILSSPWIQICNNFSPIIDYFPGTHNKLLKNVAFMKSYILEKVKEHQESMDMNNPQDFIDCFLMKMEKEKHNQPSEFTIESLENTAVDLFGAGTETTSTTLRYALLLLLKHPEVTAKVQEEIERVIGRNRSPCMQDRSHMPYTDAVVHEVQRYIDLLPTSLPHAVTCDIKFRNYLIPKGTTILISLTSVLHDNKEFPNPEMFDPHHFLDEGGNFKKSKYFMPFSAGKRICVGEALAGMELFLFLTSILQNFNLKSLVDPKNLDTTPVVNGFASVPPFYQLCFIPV

[34] = Half life in nude mouse at 5 umol/kg, iv; format: ADME, organism-based; conditions: in vivo
[35] = Volume of distribution at steady state in nude mouse at 5 umol/kg, iv; format: ADME, organism-based; conditions: in vivo, read-out: Vdss
[36] = test system: Canis familiaris; assay: AUC in Beagle dog at 0.2 umol/kg, iv; format: ADME, organism-based, Canis lupus familiaris, Plasma; conditions: in vivo
[37] = Clearance in Beagle dog at 0.2 umol/kg, iv; format: ADME, organism-based, Canis lupus familiaris; conditions: in vivo
[38] = Clearance in nude mouse at 5 umol/kg, iv; format: ADME, organism-based; conditions: in vivo
[39] = Protein binding in Han/Wistar rat plasma assessed as fraction unbound; format: ADME, cell-free; conditions: read-out: PPB
[40] = Aqueous solubility in saline at pH 5; format: physicochemical; conditions: read-out: Activity
[41] = Clearance in rat at 1 umol/kg, iv; format: ADME, organism-based; conditions: in vivo
[42] = AUC in rat at 1 umol/kg, iv; format: ADME, organism-based; conditions: plasma
[43] = Volume of distribution at steady state in rat at 1 umol/kg, iv; format: ADME, organism-based; conditions: in vivo, read-out: Vdss

Compound: Cc1ncc(-c2nc(Nc3ccc(C(=O)N4CCN(C)CC4)cc3)ncc2F)n1C(C)C
pKa [1]: 6.9
IC50 [7]: 170 nM
IC50 [8]: 130 nM
IC50 [12]: 18 nM
solubility thermodynamic at 24 h [11]: 60 µM (≈ 26.3 µg/mL)

Compound: Cc1ncc(-c2ccnc(Nc3ccc(C(=O)NC4CCN(C)CC4)c(F)c3)n2)n1C(C)C
IC50 [7]: 200 nM
IC50 [8]: 150 nM
IC50 [12]: 11 nM
solubility thermodynamic at 24 h [11]: > 2200 µM

Compound: CCCN(C)[C@H]1CCN(C(=O)c2ccc(Nc3nccc(-c4cnc(C)n4C(C)C)n3)cc2)C1
IC50 [7]: 62 nM
IC50 [8]: 120 nM
IC50 [12]: 4 nM

Compound: Cc1ncc(-c2nc(Nc3ccc(C(=O)NC4CCN(C)CC4)c(F)c3)ncc2F)n1C(C)C
pKa [1]: 8.8
Activity [2]: 0.013 µM
fraction unbound [3]: 0.06
Vd [4]: 5.2 L/kg
clearance [6]: 16 mL/min/kg
IC50 [7]: 80 nM
IC50 [8]: 12 nM
IC50 [12]: 1 nM
AUC [9]: 1.3 µM·h
logD [10]: 2.4
solubility thermodynamic at 24 h [11]: 270 µM (≈ 127 µg/mL)

Compound: Cc1ncc(-c2ccnc(Nc3ccc(C(=O)N4CCN(C)CC4)cc3)n2)n1C(C)C
pKa [1]: 7
IC50 [7]: 520 nM
IC50 [8]: 71 nM
IC50 [12]: 9 nM

Compound: Cc1ncc(-c2nc(Nc3ccc(C(=O)NC4CCN(C)CC4)cc3)ncc2F)n1C(C)C
IC50 [7]: 320 nM
IC50 [8]: 50 nM
IC50 [12]: 36 nM
solubility thermodynamic at 24 h [11]: > 2500 µM

Compound: Cc1ncc(-c2ccnc(Nc3ccc(C(=O)NC4CCN(C)CC4)cc3)n2)n1C(C)C
IC50 [7]: 2100 nM
IC50 [8]: 180 nM
IC50 [12]: 37 nM

Compound: CN[C@H]1CCN(C(=O)c2ccc(Nc3nccc(-c4cnc(C)n4C(C)C)n3)cc2)C1
IC50 [7]: 180 nM
IC50 [8]: 9 nM
IC50 [12]: 2 nM

Compound: Cc1ncc(-c2ccnc(Nc3ccc(C(=O)N4CC[C@H](NC5CC5)C4)cc3)n2)n1C(C)C
IC50 [7]: 250 nM
IC50 [8]: 100 nM
IC50 [12]: < 1 nM

Compound: Cc1ncc(-c2nc(Nc3ccc(C(=O)N4CC[C@@H](N(C)C)C4)cc3)ncc2F)n1C(C)C
IC50 [7]: 70 nM
IC50 [8]: 11 nM
solubility thermodynamic at 24 h [11]: > 2400 µM

These reach a lower IC50 [7]. Values come first.

pKa [1]: 8.1
clearance [41]: 28 mL/min/kg
Activity [2]: 0.012 µM
AUC [42]: 0.3 µM·h
fraction unbound [3]: 0.07
IC50 [7]: 40 nM
IC50 [8]: 5 nM
IC50 [12]: 2 nM
logD [10]: 2
Vd [43]: 1.5 L/kg
solubility thermodynamic at 24 h [11]: > 2600 µM
Compound: Cc1ncc(-c2nc(Nc3ccc(C(=O)N4CCCN(C)CC4)cc3)ncc2F)n1C(C)C
Activity [5]: > 32 µM

half-life [13]: > 100 days
Activity [14]: > 10 µM
Activity [15]: > 10 µM
half-life [16]: 3.6 h
half-life [17]: > 18 h
Activity [18]: > 10 µM
clearance [19]: 30 mL/min/kg
half-life [20]: > 18 h
AUC [21]: 2.4 µM·h
AUC [22]: 1.38 µM·h
half-life [23]: 32.3 h
IC50 [7]: 39 nM
fraction unbound [24]: 0.16
PPB [25]: > 67%
Vd [26]: 6.4 L/kg
Activity [28]: > 10 µM
Vd [29]: 40.4 L/kg
half-life [30]: > 24 h
half-life [31]: > 18 h
IC50 [8]: 2 nM
IC50 [12]: 2 nM
%hepatic blood flow [32]: 58%
Activity [33]: > 10 µM
half-life [34]: 3.4 h
Vd [35]: 5.1 L/kg
AUC [36]: 0.18 µM·h
clearance [37]: 19 mL/min/kg
logD [10]: 1.45
clearance [38]: 35 mL/min/kg
fraction unbound [39]: 0.04
solubility [40]: > 50 µM
Compound: CN[C@H]1CCN(C(=O)c2ccc(Nc3ncc(F)c(-c4cnc(C)n4C(C)C)n3)cc2)C1
Activity [5]: 95 µM
inhibition in vivo at 15 mg/kg [27]: 55%

pKa [1]: 7.4
Activity [2]: 0.005 µM
fraction unbound [3]: 0.04
Vd [4]: 3.4 L/kg
clearance [6]: 23 mL/min/kg
IC50 [7]: 37 nM
IC50 [8]: 11 nM
AUC [9]: 0.8 µM·h
logD [10]: 2.1
solubility thermodynamic at 24 h [11]: > 2100 µM
Compound: Cc1ncc(-c2nc(Nc3ccc(C(=O)N4CC[C@H](N(C)C)C4)cc3)ncc2F)n1C(C)C
Activity [5]: 33 µM

IC50 [7]: 3 nM
IC50 [8]: 29 nM
solubility thermodynamic at 24 h [11]: > 1900 µM
Compound: Cc1ncc(-c2ccnc(Nc3ccc(C(=O)NCCN(C)C)c(F)c3)n2)n1C(C)C

pKa [1]: 8.6
Activity [2]: 0.003 µM
fraction unbound [3]: 0.07
Vd [4]: 9.8 L/kg
clearance [6]: 24 mL/min/kg
IC50 [7]: 2 nM
IC50 [8]: < 1 nM
IC50 [12]: 2 nM
AUC [9]: 0.8 µM·h
logD [10]: 2.3
solubility thermodynamic at 24 h [11]: > 2700 µM
Compound: Cc1ncc(-c2nc(Nc3ccc(C(=O)NCCN(C)C)c(F)c3)ncc2F)n1C(C)C
Activity [5]: > 65 µM
